Several values for one entry are separate records, joined by “and”; a condition that tells them apart may be missing. Identical values can stand only once. Like-named read-outs stand apart in the source and are kept apart here.
Legend:
[1] = test system: primary adipocytes; test: Primary adipocyte glucose uptake assay (14C glucose); settings: test compound 50 mM without insulin, compared to samples containing only insulin (final concentration=100 μm)
[2] = test system: insulin receptor (IR); test: Phosphotyrosine enzyme linked immunosorbent assay: pTyr on insulin receptor in NIH3T3 cells over-expressing human IR (H25 cells); settings: for EC50: read-out: ACTIVITY EC50; for ACTIVITY (compared to control) / CONC.: Table I; for CONC.: concentration of the compound which produces the percentage increase in phosphotyrosine over the vanadate control, 90 min incubation, no insulin

Row | EC50 ([2]; Table III, […]) | Molecule | response in the primary adipocyte glucose uptake assay compared with the insulin control [1] | also measured
1 |  | 2-[(5-nitrothiazol-2-yl)mercapto]-3-cyano-5-acetoxy-6-dimethoxymethyl-pyridine [Compound 97] | did not give a response greater than or equal to the insulin control | level of pTyr on insulin receptor over time (FIG. 1) ([2]; kinetic experiments, range of concentrations, period of 90 minutes): progressively raised the level of pTyr on insulin receptor; EC50 [2]: 34 µM
2 |  | O=[N+]([O-])c1cnc(Sc2n[nH]c(-c3ccccc3)n2)s1 [Compound 1, 3-[(5-nitrothiazol-2-yl)mercapto]-5-phenyl-1,2,4-triazole] | did not give a response greater than or equal to the insulin control | ACTIVITY (compared to control) ([2]; […]): 30%; CONC. [2]: 53 µM; EC50 ([2]; Table II, […], no lot stated): 17 µM
3 |  | CC(C)(C)c1nc(Sc2ncc([N+](=O)[O-])s2)n[nH]1 [Compound 2, 2-[(5-nitro-thiazol-2-yl)mercapto]-5-t-butyl-1,2,4-triazole] | did not give a response greater than or equal to the insulin control | CONC. [2]: 4.1 µM; EC50 ([2]; Table II, […], no lot stated): 16 to 20 µM
4 |  | O=[N+]([O-])c1cnc(Sc2n[nH]c(-c3cccs3)n2)s1 [Compound 3, 3-[(5-nitrothiazol-2-yl)mercapto]-5-(thien-2-yl)-1,2,4-triazole] | did not give a response greater than or equal to the insulin control | ACTIVITY (compared to control) ([2]; […]): 50%; CONC. [2]: 77 µM; EC50 ([2]; Table II, […], no lot stated): 22 to 32 µM
5 |  | O=[N+]([O-])c1cnc(Sc2nc(-c3ccc(Cl)cc3)n[nH]2)s1 [Compound 4, 3-(4-chlorophenyl)-5-[(5-nitrothiazol-2-yl)mercapto]-1,2,4-triazole] | did not give a response greater than or equal to the insulin control | ACTIVITY (compared to control) ([2]; […]): 30%; CONC. [2]: 100 µM; EC50 ([2]; Table II, […], no lot stated): 15 to 49 µM
6 |  | O=[N+]([O-])c1cnc(Sc2nnc(O)n2-c2ccccc2)s1 [Compound 5, 3-hydroxy-5-[(5-nitrothiazol-2-yl)mercapto]-4-phenyl-1,2,4-triazole] | did not give a response greater than or equal to the insulin control | ACTIVITY (compared to control) ([2]; […]): 30%; CONC. [2]: 13 µM; EC50 ([2]; Table II, […], no lot stated): 13 to 20 µM
7 |  | O=[N+]([O-])c1cnc(Sc2nnc(O)n2C2CCCCC2)s1 [Compound 6, 4-Cyclohexyl-3-hydroxy-5-[(5-nitrothiazol-2-yl)mercapto]-1,2,4-triazole] | did not give a response greater than or equal to the insulin control | ACTIVITY (compared to control) ([2]; […]): 30%; CONC. [2]: 100 µM; increase (PTYR) ([2]; Table II, at 100 μM): 50%
8 |  | O=[N+]([O-])c1cnc(Sc2nnc(O)n2Cc2ccccc2)s1 [Compound 7] | did not give a response greater than or equal to the insulin control | CONC. [2]: 200 µM and 100 µM; EC50 ([2]; Table II, […], no lot stated): 13 µM
9 |  | O=[N+]([O-])c1cnc(Sc2nnc(O)n2-c2ccccc2C(F)(F)F)s1 [Compound 8, 3-hydroxy-5-[(5-nitrothiazol-2-yl)mercapto]-4-[2-(trifluoromethyl)phenyl]-1,2,4-triazole] | did not give a response greater than or equal to the insulin control | ACTIVITY (compared to control) ([2]; […]): 30%; CONC. [2]: 24 µM
10 |  | CCn1nc(C)cc1-c1nnc(Sc2ncc([N+](=O)[O-])s2)n1CCCOC [Compound 9, 3-(1-ethyl-3-methylpyrazol-5-yl)-4-(3-methoxy-n-propyl)-5-[5-(nitrothiazol-2-yl)mercapto]-1,2,4-triazole] | did not give a response greater than or equal to the insulin control | ACTIVITY (compared to control) ([2]; […]): 50%; CONC. [2]: 3.9 µM; EC50 ([2]; Table II, LOT 2): 6 µM; EC50 ([2]; Table II, LOT3): 16 µM
11 | 75 µM | O=[N+]([O-])c1cnc(Sc2nnc(SCc3cccc(C(F)(F)F)c3)s2)s1 [Compound 63, 2-[(5-Nitrothiazol-2-yl)mercapto]-5-[3-(trifluoromethyl)benzylmercapto]-1,3,4-thiadiazole] |  | 
12 | > 25 µM | O=C(Sc1nnc(Sc2ncc([N+](=O)[O-])s2)s1)c1ccccc1 [Compound 65, 2-Benzoylmercapto-5-[(5-nitrothiazol-2-yl)mercapto]-1,3,4-thiadiazole] |  | 
13 | 3 µM | O=[N+]([O-])c1cnc(Sc2nccc(-c3ccc(-n4cnc(Cl)c4Cl)cc3)n2)s1 [Compound 67, 4-[4-(4,5-Dichloroimidazol-1-yl)phenyl]-2-[(5-nitrothiazol-2-yl)mercapto]pyrimidine] |  | 
14 | > 100 µM | O=C1CCCc2nc(Sc3ncc([N+](=O)[O-])s3)ncc21 [Compound 68, 2-[(5-Nitrothiazol-2-yl)mercapto]cyclohexylpyrimid-5-one] |  | 
15 | > 100 µM | Cc1ccc(Nc2nnc(Sc3ncc([N+](=O)[O-])s3)s2)cc1 [Compound 69, 2-(4-Methylphenylamino)-5-[(5-nitrothiazol-2-yl)mercapto]-1,3,4-thiadiazole] |  | 
16 | > 100 µM | Cc1cccc(C)c1NC1=CN=C(Sc2ncc([N+](=O)[O-])s2)SN1 [Compound 70, 3-(2,6-dimethylphenylamino)-6-[(5-nitrothiazol-2-yl)mercapto]-1,2,5-thiadiazine] |  | 
17 | 24 µM | Cc1ccc(Nc2nnc(Sc3ncc([N+](=O)[O-])s3)s2)c(C)c1 [Compound 71, 2-(2,4-Dimethylphenylamino)-5-[(5-nitrothiazol-2-yl)mercapto]-1,3,4-thiadiazole] |  | 

Row | EC50 ([2]; Table III, […]) | Molecule | response in the primary adipocyte glucose uptake assay compared with the insulin control [1] | also measured
18 | 20 µM | Cc1cc(C)c(Nc2nnc(Sc3ncc([N+](=O)[O-])s3)s2)c(C)c1 [Compound 72, 2-[(5-Nitrothiazol-2-yl)mercapto]-5-(2,4,6-trimethylphenylamino)-1,3,4-thiadiazole] |  | 
19 | 10 µM | O=[N+]([O-])c1cnc(Sc2nnc(Nc3ccccc3)s2)s1 [Compound 73, 2-[(5-Nitrothiazol-2-yl)mercapto]-5-phenylamino-1,3,4-thiadiazole] |  | 
20 | > 100 µM | Cc1cc(C)c(Nc2nnc(Sc3ncc([N+](=O)[O-])s3)s2)cc1C [Compound 74, 2-[(5-Nitrothiazol-2-yl)mercapto]-5(2,4,5-trimethylphenylamino)-1,3,4-thiadiazole] |  | 
21 | > 100 µM | O=[N+]([O-])c1cnc(Sc2nnc(NC3CCCCC3)s2)s1 [Compound 75] |  | increase in PTYR ([2]; Table III, 100, 50 and 25 μM): 47%
22 | 63.8 µM | COc1ccccc1Nc1nnc(Sc2ncc([N+](=O)[O-])s2)s1 [Compound 76, 2-(2-Methoxyphenylamino)-5-[(5-nitrothiazol-2-yl)mercapto]-1,3,4-thiadiazol] |  | 
23 | 5 µM | Cc1ccc(Cl)cc1Nc1nnc(Sc2ncc([N+](=O)[O-])s2)s1 [Compound 77, 2-(5-Chloro-2-methylphenylamino)-5-[(5-nitrothiazol-2-yl)mercapto]-1,3,4-thiadiazole] |  | 
24 |  | O=[N+]([O-])c1ccc(-c2nnc(Sc3ncc([N+](=O)[O-])s3)[nH]2)o1 [Compound 78, 2-(2-Nitrofuran-5-yl)-5-[(5-nitrothiazol-2-yl)mercapto]-1,2,4-triazole] |  | EC50 [2]: 36 µM
25 | 7.8 µM | O=[N+]([O-])c1cnc(Sc2nnnn2Cc2ccccc2)s1 [Compound 80, 1-Benzyl-5-[(5-nitrothiazol-2-yl)mercapto]tetrazole] |  | 
26 | 34 µM | O=[N+]([O-])c1cnc(Sc2nnc(Nc3ccccc3Cl)s2)s1 [Compound 81, 2-(2-Chlorophenylamino)-5-[(5-nitrothiazol-2-yl)mercapto]-1,3,4-thiadiazole] |  | 
27 |  | O=[N+]([O-])c1cnc(Sc2ncc[nH]2)s1 [Compound 87, 2-[(5-Nitrothiazol-2-yl)mercapto]imidazole] | did not give a response greater than or equal to the insulin control | 
28 |  | O=[N+]([O-])c1cnc(Sc2nnnn2-c2cccc(O)c2)s1 [Compound 88, 1-(3-Hydroxyphenyl)-5-[(5-nitrothiazol-2-yl)mercapto]tetrazole] | did not give a response greater than or equal to the insulin control | 
29 |  | CCCCCC(=O)Nc1ccc(-n2nnnc2Sc2ncc([N+](=O)[O-])s2)cc1 [Compound 89, 1-[4-(n-Hexanoylamino)phenyl]-5-[(5-nitrothiazol-2-yl)mercapto]tetrazole] | did not give a response greater than or equal to the insulin control | 
30 |  | O=[N+]([O-])c1cnc(Sc2nc3cc4c(cc3[nH]2)OCCO4)s1 [Compound 90, 7-[(5-Nitrothiazol-2-yl)mercapto]-benzimidazo[5,6-b]1,4-dioxane] | did not give a response greater than or equal to the insulin control | 
31 |  | O=[N+]([O-])c1cnc(Sc2nnnn2-c2ccccc2)s1 [Compound 91, 5-[(5-Nitrothiazol-2-yl)mercapto]-1-phenyltetrazole] | did not give a response greater than or equal to the insulin control | 
32 |  | C#CCSc1nnc(Sc2ncc([N+](=O)[O-])s2)s1 [Compound 92, 2-[(5-Nitrothiazol-2-yl)mercapto]-5-propargylmercapto-1,3,4-thiadiazole] | did not give a response greater than or equal to the insulin control | 
33 |  | CC(C)n1c(Sc2ncc([N+](=O)[O-])s2)nc2cc(Cl)ccc21 [Compound 96(a), 5-Chloro-1-isopropyl-2-[(5-nitrothiazol-2-l)mercapto]benzimidazole] | did not give a response greater than or equal to the insulin control | 
34 |  | Cc1ccsc1/C=C/c1ccnc(Sc2ncc([N+](=O)[O-])s2)n1 [Compound 98] | did not give a response greater than or equal to the insulin control | 
